Source: patent US6689803B2, “Compositions and methods for treating surgical adhesions” (Angiotech Pharmaceuticals, Inc., priority 1996, dated 2004)

Assays:
[1] = system: neutrophils; assay: Neutrophil degranulation assay (myeloperoxidase, lysozyme release); assay type: cell-based, human
Experimental: Neutrophil viability and purity was always greater than 90%.
One and a half milliliter Eppendorf tubes containing either 25 mg of CPPD or 1 mg of zymosan were preheated to 37° C. 0.5 ml of cells at 37° C. were added followed by vigorous shaking to initiate the reactions. At appropriate times, tubes were centrifuged at 10,000 g for 10 seconds and 0.4 ml of supernatant was stored at −20° C. for later assay.
Lysozyme was measured by the decrease in absorbance at 450 nm of a Micrococcus lysodeikticus suspension. Briefly, Micrococcus lysodeikticus was suspended at 0.1 mg/ml in 65 mM potassium phosphate buffer, pH 6.2 and the absorbance at 450 nm was adjusted to 0.7 units by dilution. The crystal (or zymosan) and cell supernatant (100 μl) was added to 2.5 ml of the Micrococcus suspension and the decrease in absorbance was monitored. Lysozyme standards (chicken egg white) in the 0 to 2000 units/ml range were prepared and a calibration graph of lysozyme concentration against the rate of decrease in the absorbance at 450 nm was obtained.
Myeloperoxidase (MPO) activity was measured by the increase in absorbance at 450 nm that accompanies the oxidation of dianisidine. 7.8 mg of dianisidine was dissolved in 100 ml of 0.1 M citrate buffer, pH 5.5 at […] by sonication. To a 1 ml cuvette, 0.89 ml of the dianisidine solution was added, followed by 50 μl of 1% Triton x 100, 10 μl of a 0.05% hydrogen peroxide in water solution and 50 μl of crystal-cell supernatant. MPO activity was determined from the change in absorbance (450 nm) per minute, Delta Å 450, using the following equation: […]

[2] = system: TR1 T-cell clones; assay: T cell response to antigenic stimulus (tritiated thymidine incorporation); assay type: cell-based; conditions: micellar formulation; GP68-88 or conA; added at start or 24 hours after stimulation; 48 hours
Experimental: Tritiated thymidine incorporation was determined as a measure of T-cell proliferation in response to peptide or conA stimulation.

[3] = system: synoviocytes; assay: 3H-thymidine incorporation into synoviocytes; assay type: cell-based; conditions: 6 or 24 hours
Experimental: At these times, 1×10^−6 cpm of ^3H-thymidine was added to the cell culture and incubated for 2 hours at 37° C. The cells were placed through a cell harvester, washed through a filter, the filters were cut, and the amount of radiation contained in the filter sections determined. Once the amount of thymidine incorporated into the cells was ascertained, it was used to determine the rate of cell proliferation. This experiment was repeated three times and the data collated.

[4] = system: fibrous astrocytes (GFAP); assay: GFAP and astrocytes in brain, transgenic mouse model of demyelinating disease; assay type: in vivo; conditions: brain sections, transgenic mice
Description: Three days following the tenth injection, the experimental study was terminated and the brain tissues processed for histological analysis. For light microscopy, tissues were fixed in formalin and embedded in paraffin. Sections were stained with anti-GFAP antibody (DACO), washed and then reacted with secondary antibody conjugated with HPP. The sections were stained for HPP and counter-stained with haematoxylin.

[5] = system: EOMA cells; assay: Endothelial cell proliferation (trypan blue exclusion); assay type: cell-based; conditions: 48 hours
Experimental: Following the incubation, the number of viable cells were determined using the trypan blue exclusion assay. […] All cell toxicity assays were performed three times, and each individual measurement was made in triplicate.

[6] = system: AP-1 DNA binding activity; assay: IL-1 induced AP-1 DNA binding (gel mobility shift); assay type: cell-based; conditions: 10^−7 to 10^−5 M, pretreated 24 hours
Experimental: Binding activity was assayed with a radiolabeled human AP-1 sequence probe and gel mobility shift assay. […] The “com” lane contains excess unlabeled AP-1 oligonucleotide. The results shown are representative of tree independent experiments.

[7] = system: MDAY-D2 tumors on the CAM; assay: Tumor angiogenesis: MDAY-D2 tumors on the CAM; assay type: in vivo, chick; conditions: 20% paclitaxel-loaded thermopaste
Experimental: Fertilized domestic chick embryos are incubated for 4 days prior to having their shells removed. The egg contents are emptied by removing the shell located around the airspace, severing the interior shell membrane, perforating the opposite end of the shell and allowing the egg contents to gently slide out from the blunted end. The contents are emptied into round-bottom sterilized glass bowls, covered with petri dish covers and incubated at 90% relative humidity and 3% carbon dioxide.
MDAY-D2 cells (a murine lymphoid tumor) are injected into mice and allowed to grow into tumors weighing 0.5-1.0 g. The mice are sacrificed, the tumor sites wiped with alcohol, excised, placed in sterile tissue culture media, and diced into 1 mm pieces under a laminar flow hood. Prior to placing the dissected tumors onto the […] chick embryos, CAM surfaces are gently scraped with a 30 gauge needle to ensure tumor implantation. The tumors are then placed on the CAMs after 8 days of incubation (4 days after deshelling), and allowed to grow on the CAM for four days to establish a vascular supply. Four embryos are prepared utilizing this method, each embryo receiving 3 tumors. On day 12, each of the 3 tumors on the embyros received either 20% paclitaxel-loaded thermopaste, unloaded thermopaste, or no treatment. The treatments were continued for two days before the results were recorded.
The explanted MDAY-D2 tumors secrete angiogenic factors which induce the ingrowth of capillaries (derived from the CAM) into the tumor mass and allow it to continue to grow in size. Since all the vessels of the tumor are derived from the CAM, while all the tumor cells are derived from the explant, it is possible to assess the effect of therapeutic interventions on these two processes independently. This assay has been used to determine the effectiveness of paclitaxel-loaded thermopaste on: (a) inhibiting the vascularization of the tumor and (b) inhibiting the growth of the tumor cells themselves.

[8] = system: LNCaP cells; assay: LNCaP cell growth (crystal violet); assay type: cell-based, human; conditions: Homo sapiens, LNCaP, 120 h; 5 days; read-out: EC50
Experimental: LNCaP cells were seeded at concentrations of 2×10^3 and 1×10^3 cells/well respectively in 96 well plates. […] After incubation, the cells were fixed with 1% glutaraldehyde solution, and stained for 5 minutes with 0.5% crystal violet. The dye was successively eluted with 100 μl of buffer solution and the absorbance was read on a Titertek Multiskan microplate reader using a wavelength of 492 nm Absorbance. Cell growth was expressed as a percentage relative to control wells in the absence of the compound (set at 100%).

[9] = system: restenosis / intimal hyperplasia; assay: Rat carotid artery balloon injury model of restenosis, perivascular treatment; assay type: in vivo; conditions: paclitaxel-loaded (20%) polymers (EVA film or PCL paste), 2.5 mg perivascular; 14 and 28 days
Experimental: WISTAR rats weighing 250 to 300 g were anesthetized by the intramuscular injection of Innovar (0.33 ml/kg). Once sedated they were then placed under Halothane anesthesia After general anesthesia was established, fur over the neck region was shaved, the skin clamped and swabbed with betadine. A vertical incision was made over the left carotid artery and the external carotid artery exposed. Two ligatures were placed around the external carotid artery and a transverse arteriotomy was made. […] The endothelium was denuded by passing the inflated balloon up and down the carotid artery three times. The catheter was then removed and the ligature tied off on the left external carotid artery. […] The wound was then closed.

[10] = system: subcutaneous tumors; assay: Subcutaneous tumors in mice treated with paste; assay type: in vivo; conditions: paclitaxel/gelatin/PCL paste
[11] = system: neutrophils; conditions: human, 1 h, 46 µM
Experimental: Neutrophils were prepared from freshly collected human citrated whole blood. Briefly, 400 ml of blood were mixed with 80 ml of 4% dextran T500 (Phamacia LKB, Biotechnology AB Uppsala, Sweden) in HBSS and allowed to settle for 1 hour. Plasma was collected continuously and 5 ml applied to 5 ml of Ficoll Paque (Pharmacia) in 15 ml polypropylene tubes (Corning, N.Y.). Following centrifugation at 500 g for 30 minutes, the neutrophil pellets were washed free of erythrocytes by 20 seconds of hypotonic shock. Neutrophils were resuspended in HBSS, kept on ice and used for experiments within 3 hours. Neutrophil viability and purity was always greater than 90%.
To determine the effect of the anti-microtubule agents on neutrophil viability the release of the cytoplasmic marker enzyme, lactate dehydrogenase (LDH) was measured. Control tubes containing cells with drug (crystals absent) from degranulation experiments were also assayed for LDH.

[12] = system: skin inflammation; assay: Mouse ear skin inflammation (oxazolone delayed-type hypersensitivity, PMA)
Experimental: Briefly, mice were sensitized to oxazolone by topical application of the compound onto the skin. Five days later, mice were challenged with oxazolone by topical application onto the ear skin (left ear: oxazolone, right ear: vehicle alone), resulting in a cutaneous inflammatory, “delayed-type hypersensitivity” reaction. […] Epon-embedded, Giesma-stained, 1 μm tissue sections were evaluated for the presence of inflammatory cells, for the presence of tissue mast cells and their state of activation, and for the degree of epidermal hyperplasia.

CC(=O)O[C@H]1C(=O)[C@@]2(C)[C@H]([C@H](OC(=O)c3ccccc3)[C@]3(O)C[C@H](OC(=O)[C@H](O)[C@@H](NC(=O)c4ccccc4)c4ccccc4)C(C)=C1C3(C)C)[C@]1(OC(C)=O)CO[C@@H]1C[C@@H]2O [paclitaxel]
lysozyme release ([1]; 28 μM, plasma opsonized CPPD): reduced lysozyme release
inhibition at 28 µM ([1]; Homo sapiens, Neutrophil, 28 μM, opsonized zymosan, after 9 minutes incubation, read-out: inhibition of MPO release): 50%
myeloperoxidase release ([1]; plasma opsonized CPPD (FIG. 5A: 28 μM)): significantly inhibited CPPD-induced myeloperoxidase release at all times
concentration at which T-cell proliferation was (completely) inhibited [2]: 0.02 µM
inhibits incorporation of 3H-thymidine at concentrations as low as [3]: 10^−8 M
number of fibrous astrocytes [4]: decreased significantly
inhibition of endothelial cell proliferation ([5]; 10^−7M or greater): completely inhibited cell proliferation
inhibition at 0.01 µM ([5]; Endothelial cell, 10^−8M): > 50%
IL-1 induced AP-1 binding activity [6]: decreased
blood vessels in the immediate periphery of the tumor ([7]; two days): 14
small capillaries in the tumor mass ([7]; two days): 3-4
tumor vascularity ([7]; all 4 embryos): suppressing tumor vascularity
EC50 [8]: ~0.09 nM
restenosis [9]: completely prevented restenosis
tumor mass [10]: significantly reduced the tumor mass
LDH release [11]: less than 5 % of total
skin irritation ([12]; 1% paclitaxel formulation, 20 μl to each side of the ears daily for 8 days, normal or inflamed ear skin): no detection of skin irritation
ear swelling and skin erythema induced by PMA ([12]; topical 1% paclitaxel formulation): significantly inhibited ear swelling and skin erythema
ear swelling, delayed-type hypersensitivity reaction (oxazolone) ([12]; topical 1% paclitaxel gel versus vehicle alone): significant decrease in ear swelling
